We go through 1 compound from patent publication US10759817B2, “Gadolinium complex, method for synthesis of the gadolinium complex, and MRI contrast agent including the gadolinium complex” (Kyungpook National University Industry-Academic Cooperation …, priority 2018, dated 2020).

The data set can be described thus: Relaxibity (r1, r2) measurement by MRI at 1.5 T and 9.4 T. Type of data set: physicochemical. The text has this:
In accordance with the present disclosure, the relaxibity (unit mM^−1 s^−1) is obtained using an inversion recovery according to the inversion time (T1). More specifically, signal intensities at varying inversion times T1 are acquired. Then, the signal intensities are subjected to a minimum non-linear fitting (NLF) to obtain the relaxation time (s). Then, the relaxibity (unit mM^−1 s^−1) is obtained using the relaxation time (s) and the concentration (mM) of the contrast agent. The gadolinium complex represented by the Chemical Formula 1 has the relaxibity defined as above which is at least 4 mM^−1 s^−1 not only in the normal magnetic field range of 1.5 T but also in the high magnetic field of 7 T or greater.
The relaxibity for the gadolinium complex GdL^b as obtained above was measured at magnetic field strengths of 1.5 T and 9.4 T respectively as follows.
T1 relaxation time was checked using inversion recovery according to various T1 (inversion times). […] The T2 relaxation time is determined as follows. […] For TEs, mean values of pixels for various spin-echo measurements were calculated using a nonlinear fitting method. Then, the T2 relaxation time was calculated using the spin-echo measurements. The relaxibity (mM^−1s^−1) was calculated as an inverse of a relaxation time (s) for the contrast agent 1 mM. We calculated r1 using the T1 relaxation time and r2 using the T2 relaxation time. […]

Each structure is given as a SMILES string.

As to `O=C([O-])CN1CCN(CC(=O)[O-])CCN([C@H](CO)[C@H](O)CO)CCN(CC(=O)[O-])CC1.[Gd+3]` (racemic) [Gadovist ®, gadobutrol], the “Relaxibity r1” value reads like this: (magnetic field 1.5 T) 4.06 mM⁻¹ s⁻¹; (magnetic field 9.4 T) 2.96 mM⁻¹ s⁻¹.
